Tested on: human umbilical vein endothelial cells (HUVEC)
Test: HUVEC proliferation assay
Format: cell-based
Conditions: Homo sapiens, HUVEC, crude combinatorial amide library; for inhibition at 0.15 µM: Table I screening results, 150 nM; for inhibition at 0.001 µM / inhibition at 0.01 µM: Table II screening results; for inhibition at 0.001 µM: 1 nM; for inhibition at 0.01 µM: 10 nM, read-out: % inhibition @ 10 nM
Summary of the method: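 Readout was MTT dye reduction (A595) after 72 h of stimulation with VEGF at 6 ng/ml final. Compound, in 0.1% DMSO final, was added 1 h before VEGF to HUVEC starved 24 h in 1% FBS. % inhibition was scaled between VEGF-alone and unstimulated wells; IC50 was fitted from triplicate dose curves.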

`COc1cc(Nc2nc(N)c(-c3nc(-c4cccc(NC(=O)CC56CC7CC8CC(C5)C8(C7)C6)c4)cs3)s2)cc(OC)c1OC` (stereo not shown) showed an inhibition at 0.15 µM of 8%.

`COc1cc(Nc2nc(N)c(-c3nc(-c4cccc(NC(=O)c5ccc(C(=O)c6ccccc6)cc5)c4)cs3)s2)cc(OC)c1OC` gave an inhibition at 0.15 µM of 7%.

Work on `COc1cc(Nc2nc(N)c(-c3nc(-c4cccc(NC(=O)CNC(=O)c5ccccc5)c4)cs3)s2)cc(OC)c1OC` yielded an inhibition at 0.15 µM of -26%.

`COc1cc(Nc2nc(N)c(-c3nc(-c4cccc(NC(=O)c5cc6ccccc6[nH]5)c4)cs3)s2)cc(OC)c1OC` gave an inhibition at 0.15 µM of 4%.

In the case of `COc1cc(Nc2nc(N)c(-c3nc(-c4cccc(NC(=O)c5c[nH]c6ccccc56)c4)cs3)s2)cc(OC)c1OC`, the inhibition at 0.15 µM is reported as 20%.

In the case of `COc1cc(Nc2nc(N)c(-c3nc(-c4cccc(NC(=O)Cc5ccc6ccccc6c5)c4)cs3)s2)cc(OC)c1OC`, the inhibition at 0.15 µM is reported as -7%.

`COc1cc(Nc2nc(N)c(-c3nc(-c4cccc(NC(=O)Cc5cccc6ccccc56)c4)cs3)s2)cc(OC)c1OC` showed an inhibition at 0.15 µM of 6%.

`COc1cc(Nc2nc(N)c(-c3nc(-c4cccc(NC(=O)c5ccc6ccccc6c5)c4)cs3)s2)cc(OC)c1OC` gave an inhibition at 0.15 µM of 53%.

For `COc1cc(Nc2nc(N)c(-c3nc(-c4cccc(NC(=O)c5cccc6ccccc56)c4)cs3)s2)cc(OC)c1OC`, the inhibition at 0.15 µM was 22%.

`COc1cc(Nc2nc(N)c(-c3nc(-c4cccc(NC(=O)CCCc5ccccc5)c4)cs3)s2)cc(OC)c1OC` gave an inhibition at 0.15 µM of 15%.

With `COc1cc(Nc2nc(N)c(-c3nc(-c4cccc(NC(=O)/C(=C/c5ccccc5)c5ccccc5)c4)cs3)s2)cc(OC)c1OC` the inhibition at 0.15 µM was 3%.

Work on `COc1cc(Nc2nc(N)c(-c3nc(-c4cccc(NC(=O)[C@@H]5C[C@H]5c5ccccc5)c4)cs3)s2)cc(OC)c1OC` yielded an inhibition at 0.15 µM of -4%.

With `COc1cc(Nc2nc(N)c(-c3nc(-c4cccc(NC(=O)CSc5ccncc5)c4)cs3)s2)cc(OC)c1OC` the inhibition at 0.15 µM was -34%.

`COc1cc(Nc2nc(N)c(-c3nc(-c4cccc(NC(=O)C(c5ccccc5)C5CCCC5)c4)cs3)s2)cc(OC)c1OC` (stereo not shown) showed an inhibition at 0.15 µM of 3%.

For `CCC(C(=O)Nc1cccc(-c2csc(-c3sc(Nc4cc(OC)c(OC)c(OC)c4)nc3N)n2)c1)c1ccccc1` (stereo not shown), the inhibition at 0.15 µM was 6%.

Work on `COc1cc(Nc2nc(N)c(-c3nc(-c4cccc(NC(=O)C5(c6ccccc6)CCCC5)c4)cs3)s2)cc(OC)c1OC` yielded an inhibition at 0.15 µM of -10%.

With `COc1cc(Nc2nc(N)c(-c3nc(-c4cccc(NC(=O)C5(c6ccccc6)CC5)c4)cs3)s2)cc(OC)c1OC` the inhibition at 0.15 µM was 11%.

With `C=CCCC(=O)Nc1cccc(-c2csc(-c3sc(Nc4cc(OC)c(OC)c(OC)c4)nc3N)n2)c1` the inhibition at 0.15 µM was 5%.

`COc1cc(Nc2nc(N)c(-c3nc(-c4cccc(NC(=O)C5CCc6ccccc6C5)c4)cs3)s2)cc(OC)c1OC` (stereo not shown) showed an inhibition at 0.15 µM of 11%.

`COc1cc(Nc2nc(N)c(-c3nc(-c4cccc(NC(=O)c5cccs5)c4)cs3)s2)cc(OC)c1OC` gave an inhibition at 0.15 µM of 29%.

`COc1cc(Nc2nc(N)c(-c3nc(-c4cccc(NC(=O)c5cccc(Oc6ccccc6)c5)c4)cs3)s2)cc(OC)c1OC` gave an inhibition at 0.15 µM of -3%.

Compound `COc1cc(Nc2nc(N)c(-c3nc(-c4cccc(NC(=O)c5nn(-c6ccccc6)nc5C)c4)cs3)s2)cc(OC)c1OC` has an inhibition at 0.15 µM of 0%.

With `COc1cc(Nc2nc(N)c(-c3nc(-c4cccc(NC(=O)c5ccc6[nH]ccc6c5)c4)cs3)s2)cc(OC)c1OC` the inhibition at 0.15 µM was 15%.

In the case of `COc1cc(Nc2nc(N)c(-c3nc(-c4cccc(NC(=O)CCN5CCCCC5)c4)cs3)s2)cc(OC)c1OC`, the inhibition at 0.15 µM is reported as 15%.

`COc1cc(Nc2nc(N)c(-c3nc(-c4cccc(NC(=O)/C=C/c5c[nH]c6ccccc56)c4)cs3)s2)cc(OC)c1OC` was tested, and the inhibition at 0.15 µM was 5%.

`COc1cc(Nc2nc(N)c(-c3nc(-c4cccc(NC(=O)/C=C/c5c[nH]cn5)c4)cs3)s2)cc(OC)c1OC` gave an inhibition at 0.15 µM of 2%.

Compound `COc1cc(Nc2nc(N)c(-c3nc(-c4cccc(NC(=O)c5c(-c6ccccc6)noc5C)c4)cs3)s2)cc(OC)c1OC` has an inhibition at 0.15 µM of 5%.

`COc1cc(Nc2nc(N)c(-c3nc(-c4cccc(NC(=O)c5ccc(N6N=C(C)CC6=O)cc5)c4)cs3)s2)cc(OC)c1OC` gave an inhibition at 0.15 µM of 0%.

`COc1cc(Nc2nc(N)c(-c3nc(-c4cccc(NC(=O)C(O)(c5ccccc5)c5ccccc5)c4)cs3)s2)cc(OC)c1OC` gave an inhibition at 0.15 µM of -8%.

`COc1cc(Nc2nc(N)c(-c3nc(-c4cccc(NC(=O)c5cc(C(C)(C)C)cc(C(C)(C)C)c5)c4)cs3)s2)cc(OC)c1OC` showed an inhibition at 0.15 µM of -12%.

Work on `CNC(=O)Nc1nc(N)c(-c2nc(-c3cccc(NC(=O)CC4CC5CCC4C5)c3)cs2)s1` (stereo not shown) yielded an inhibition at 0.001 µM of 0% and an inhibition at 0.01 µM of 93%.

`CNC(=O)Nc1nc(N)c(-c2nc(-c3cccc(NC(=O)CCN4CCCCC4)c3)cs2)s1` was tested, and the inhibition at 0.001 µM was 1% and the inhibition at 0.01 µM was -26%.

Compound `CNC(=O)Nc1nc(N)c(-c2nc(-c3cccc(NC(=O)C(C)C)c3)cs2)s1` has an inhibition at 0.001 µM of 10% and an inhibition at 0.01 µM of -45%.

Work on `CNC(=O)Nc1nc(N)c(-c2nc(-c3cccc(NC(=O)CCC(=O)N4CCCC4)c3)cs2)s1` yielded an inhibition at 0.001 µM of 6% and an inhibition at 0.01 µM of -10%.

Work on `CCc1ccccc1C(=O)Nc1cccc(-c2csc(-c3sc(NC(=O)NC)nc3N)n2)c1` yielded an inhibition at 0.001 µM of 0% and an inhibition at 0.01 µM of 106%.

In the case of `CNC(=O)Nc1nc(N)c(-c2nc(-c3cccc(NC(=O)Cn4ccc5ccccc54)c3)cs2)s1`, the inhibition at 0.001 µM is reported as 4% and the inhibition at 0.01 µM is reported as -15%.

In the case of `CNC(=O)Nc1nc(N)c(-c2nc(-c3cccc(NC(=O)C4=CCCN(C)C4)c3)cs2)s1`, the inhibition at 0.001 µM is reported as 2% and the inhibition at 0.01 µM is reported as 43%.

`CNC(=O)Nc1nc(N)c(-c2nc(-c3cccc(NC(=O)C4CCCN4C(C)=O)c3)cs2)s1` (stereo not shown) gave an inhibition at 0.001 µM of 3% and an inhibition at 0.01 µM of 27%.

For `CNC(=O)Nc1nc(N)c(-c2nc(-c3cccc(NC(=O)/C=C/C4C[C@H]5C=C[C@@H]4C5)c3)cs2)s1` (stereo partly shown), the inhibition at 0.001 µM was 11% and the inhibition at 0.01 µM was 50%.

Compound `CCC(C(=O)Nc1cccc(-c2csc(-c3sc(NC(=O)NC)nc3N)n2)c1)c1ccccc1C` (stereo not shown) has an inhibition at 0.001 µM of -8% and an inhibition at 0.01 µM of 9%.

Work on `CNC(=O)Nc1nc(N)c(-c2nc(-c3cccc(NC(=O)c4ccc(C(C)(C)C)o4)c3)cs2)s1` yielded an inhibition at 0.001 µM of 2% and an inhibition at 0.01 µM of 69%.

Compound `CNC(=O)Nc1nc(N)c(-c2nc(-c3cccc(NC(=O)/C=C(\C)c4ccccc4C)c3)cs2)s1` has an inhibition at 0.001 µM of -2% and an inhibition at 0.01 µM of 20%.

In the case of `CNC(=O)Nc1nc(N)c(-c2nc(-c3cccc(NC(=O)c4ccc(C(C)=O)s4)c3)cs2)s1`, the inhibition at 0.001 µM is reported as 49% and the inhibition at 0.01 µM is reported as 97%.

For `CNC(=O)Nc1nc(N)c(-c2nc(-c3cccc(NC(=O)C(C)ON=C(C)C)c3)cs2)s1` (stereo not shown), the inhibition at 0.001 µM was 6% and the inhibition at 0.01 µM was -7%.

`CNC(=O)Nc1nc(N)c(-c2nc(-c3cccc(NC(=O)/C=C/C(=O)NCC4CC4)c3)cs2)s1` was tested, and the inhibition at 0.001 µM was 10% and the inhibition at 0.01 µM was 1%.

Compound `CNC(=O)Nc1nc(N)c(-c2nc(-c3cccc(NC(=O)c4cc(OC)ccc4C#N)c3)cs2)s1` has an inhibition at 0.001 µM of -18% and an inhibition at 0.01 µM of -1%.

Compound `CNC(=O)Nc1nc(N)c(-c2nc(-c3cccc(NC(=O)c4cc(C)cc(=O)o4)c3)cs2)s1` has an inhibition at 0.001 µM of 5% and an inhibition at 0.01 µM of 62%.

In the case of `CNC(=O)Nc1nc(N)c(-c2nc(-c3cccc(NC(=O)Cc4cn(C)cn4)c3)cs2)s1`, the inhibition at 0.001 µM is reported as 34% and the inhibition at 0.01 µM is reported as 42%.

Compound `CNC(=O)Nc1nc(N)c(-c2nc(-c3cccc(NC(=O)CC(C)(C)NC(C)=O)c3)cs2)s1` has an inhibition at 0.001 µM of 4% and an inhibition at 0.01 µM of -11%.

With `CCO/C(C)=C/C(=O)Nc1cccc(-c2csc(-c3sc(NC(=O)NC)nc3N)n2)c1` the inhibition at 0.001 µM was 7% and the inhibition at 0.01 µM was 47%.

`CNC(=O)Nc1nc(N)c(-c2nc(-c3cccc(NC(=O)[C@@H]4C[C@H](C)[C@H](C)[C@@H]4C)c3)cs2)s1` was tested, and the inhibition at 0.001 µM was -11% and the inhibition at 0.01 µM was -21%.

In the case of `C/C=C/C(=O)Nc1cccc(-c2csc(-c3sc(NC(=O)NC)nc3N)n2)c1`, the inhibition at 0.001 µM is reported as -1% and the inhibition at 0.01 µM is reported as -7%.

Work on `CNC(=O)Nc1nc(N)c(-c2nc(-c3cccc(NC(=O)CC4=CCCCC4)c3)cs2)s1` yielded an inhibition at 0.001 µM of 29% and an inhibition at 0.01 µM of 82%.

`CNC(=O)Nc1nc(N)c(-c2nc(-c3cccc(NC(=O)C(=O)C4=CCCCC4)c3)cs2)s1` was tested, and the inhibition at 0.001 µM was 17% and the inhibition at 0.01 µM was 19%.

With `CNC(=O)Nc1nc(N)c(-c2nc(-c3cccc(NC(=O)C4CNC(=O)N4)c3)cs2)s1` (stereo not shown) the inhibition at 0.001 µM was 11% and the inhibition at 0.01 µM was 18%.

Work on `CNC(=O)Nc1nc(N)c(-c2nc(-c3cccc(NC(=O)C4CC4C)c3)cs2)s1` (stereo not shown) yielded an inhibition at 0.001 µM of -12% and an inhibition at 0.01 µM of 0%.

`CNC(=O)Nc1nc(N)c(-c2nc(-c3cccc(NC(=O)c4cc(F)ccc4C)c3)cs2)s1` showed an inhibition at 0.001 µM of -1% and an inhibition at 0.01 µM of 78%.

Compound `CNC(=O)Nc1nc(N)c(-c2nc(-c3cccc(NC(=O)C4CCSCN4C)c3)cs2)s1` (stereo not shown) has an inhibition at 0.001 µM of 1% and an inhibition at 0.01 µM of 62%.

Work on `CNC(=O)Nc1nc(N)c(-c2nc(-c3cccc(NC(=O)[C@@H]4CCC[C@@H]4O)c3)cs2)s1` yielded an inhibition at 0.001 µM of 15% and an inhibition at 0.01 µM of 13%.

In the case of `CNC(=O)Nc1nc(N)c(-c2nc(-c3cccc(NC(=O)C4CCC(=O)CC4)c3)cs2)s1`, the inhibition at 0.001 µM is reported as -2% and the inhibition at 0.01 µM is reported as 12%.

In the case of `CNC(=O)Nc1nc(N)c(-c2nc(-c3cccc(NC(=O)c4ccccc4C(C)C)c3)cs2)s1`, the inhibition at 0.001 µM is reported as -9% and the inhibition at 0.01 µM is reported as 26%.

`CNC(=O)Nc1nc(N)c(-c2nc(-c3cccc(NC(=O)[C@@H](O)C(C)C)c3)cs2)s1` gave an inhibition at 0.001 µM of 16% and an inhibition at 0.01 µM of 4%.

`CCn1nc(C)cc1C(=O)Nc1cccc(-c2csc(-c3sc(NC(=O)NC)nc3N)n2)c1` was tested, and the inhibition at 0.001 µM was 17% and the inhibition at 0.01 µM was 41%.

With `CNC(=O)Nc1nc(N)c(-c2nc(-c3cccc(NC(=O)C4CC(=O)N(C)C4)c3)cs2)s1` (stereo not shown) the inhibition at 0.001 µM was 21% and the inhibition at 0.01 µM was -4%.

With `CNC(=O)Nc1nc(N)c(-c2nc(-c3cccc(NC(=O)/C=C/c4ccccc4OC)c3)cs2)s1` the inhibition at 0.001 µM was -34% and the inhibition at 0.01 µM was 46%.

Reference: patent US6620828B2, “Thiazole compounds and pharmaceutical compositions for inhibiting protein kinases and methods for their use” (Agouron Pharmaceuticals, Inc., priority 1999, dated 2003)
